Test results taken from US10265333B2, “Lipid nanomaterial containing lysophosphatidylcholine or derivative thereof and method for preparing same” (priority 2013, dated 2019).

Columns and labels:
[1] = system: hair-clipped dorsal back skins of mice; assay: Local irritation test in mice after single subcutaneous administration; assay type: in vivo; settings: for Clinical signs: Normal appearance (% of mice) / Clinical signs: Normal appearance (mice/group) / Clinical signs: Skin ulcerative lesions (mice/group): male ICR mice, 14 days
Procedure: In order to evaluate the local irritation of the LPC-containing lipid nanoparticle formulation (LPC-F; 18:0 LPC concentration: 10 mg/ml) prepared in example 1, 20, 10, and 5 ml/kg (18:0 LPC 200, 100, and 50 mg/kg) were single subcutaneously administered to hair-clipped dorsal back skins of mice. Based on the “Testing Guidelines for Safety Evaluation of Drugs” [2009] in Notification No. 2009-116 issued by the Korea Food and Drug Administration, the changes in mortality, body weight, clinical signs, gross and histopathological findings around injection sites during 14 days were compared between the LPC-containing lipid nanoparticle formulations and equal concentrations of lysophosphatidylcholine saline suspension (LPC-API) 10 mg/ml treated group. In the present test, saline was used as negative control, and the highest dosage 200 mg/kg was set based on the maximum permissible dosage 20 ml/kg in rodents (Flecknell, 1996; KFDA Guidelines, Notification 2009-116, 2009; OECD Guidelines, #423, 2001). The dosages were set to 10 and 5 ml/kg in middle and lowest dosage groups, respectively.
Animal male ICR mice were 6-wk old upon receipt (body weight ranged in 30-32 g), and were 10-wk old after acclimatization for 28 days (body weight ranged in 36.4-49.0 g). The animals were distributed into the following groups for the test.
All data were expressed as mean±standard deviation (SD) of five mice. Multiple comparison tests for different dosage groups were conducted. Variance homogeneity was examined using the Levene test (Levene A, Clin Otalary, 1981; 6:145-51). […] Statistical analyses were conducted using SPSS (Release 14.0 K, SPSS Inc., USA; Ludbrook, Clin Exp Pharmacol Physiol, 1997; 24:294-6). A p-value <0.05 was considered statistically significant.

[2] = system: heparinized rat (SD rat) bloods; assay: Hemolysis in heparinized rat blood (OD 570 nm of supernatant); assay type: cell-based
Procedure: (§1) In order to evaluate the degree of hemolysis and erythrocyte aggregation induced by LPC-containing lipid nanoparticles (LPC-F; 18:0 LPC concentration: 10 mg/ml) prepared in example 1, 200 μl of saline, distilled water, six different concentration solutions (stock, 2, 4, 8, 16 and 32-fold diluted solutions) of LPC-F, or non-formulated lysophosphatidylcholine (LPC-API) 10 mg/ml concentrated saline solution were directly added into 1 ml of collected heparinized rat (SD rat) bloods, and then, incubated at 37° C. in shaking incubator at 100 rpm for 3 hrs. The prepared LPC-F was fold-diluted with saline to prepare six different concentrations of LPC-F. LPC-API 10 mg/ml concentrated solution was prepared through dispersion in saline, and then fold-diluted with saline to prepare six different concentrations of LPC-API Five independent experiments were repeatedly conducted. If possible, blood taken from same rats was used in each independent experiment. After the incubation in shaking incubator at 100 rpm, the formed erythrocyte aggregation was semi-quantitatively evaluated, and the OD values were calculated for the supernatant in each tube, which was prepared by centrifuging the incubated samples at 12,500 rpm for 10 minutes, and then reading the OD at 570 nm, respectively. Hemolysis was calculated by equation 1 below. The hemolytic reaction was considered positive if the hemolytic percentage was greater than 5%. Hemolytic percentage (%)=(OD sample−OD negative/(OD positive−OD negative)×100 [Equation 1]
Where negative=saline, and positive=distilled water
OD values and semiquantative erythrocyte aggregation scores were expressed by mean±standard deviation of five independent experiments. Multiple comparison tests for different dose groups were conducted. Variance homogeneity was examined using the Levene test (Levene A, Clin Otalary, 1981; 6:145-51). […] Statistical analyses were conducted using SPSS (Release 14.0 K, SPSS Inc., USA; Ludbrook, Clin Exp Pharmacol Physiol, 1997; 24:294-6). A p-value p<0.05 was considered statistically significant.

[3] = system: heparinized rat (SD rat) bloods; assay: Erythrocyte aggregation in heparinized rat blood (semiquantitative score); assay type: cell-based; settings: all six different concentrations (stock to 32-fold diluted)
Procedure: as §1, with “If possible, blood taken from same rats was used in each independent experiment.” left out, “The hemolytic reaction was considered positive if the hemolytic percentage was greater than 5%. Hemolytic percentage (%)=(OD sample−OD negative/(OD positive−OD negative)×100 [Equation 1]” left out
Erythrocyte aggregation was evaluated based on semiquantative scores as follows: […]

[4] = single s.c. 5 ml/kg (LPC 50 mg/kg)
[5] = single s.c. 10 ml/kg (LPC 100 mg/kg)
[6] = single s.c. 20 ml/kg (LPC 200 mg/kg)

lysophosphatidylcholine [LPC-API]
Degree of ulcerative skin lesions around injection sites ([1]; 200, 100, 50 mg/kg treated groups, from 48 hrs after end of treatment): slight [1+] or moderate [2+]
Histopathology: skin ulcerative lesions (% of mice) ([1]; single s.c. 50 mg/kg): 60%
Necropsy: skin ulcerative lesions around injection sites (% of mice) ([1]; single s.c. 50 mg/kg): 60%
Histopathology: skin ulcerative lesions (% of mice) ([1]; single s.c. 100 mg/kg): 60%
Necropsy: skin ulcerative lesions around injection sites (% of mice) ([1]; single s.c. 100 mg/kg): 60%
Histopathology: skin ulcerative lesions (% of mice) ([1]; single s.c. 200 mg/kg): 100%
Necropsy: skin ulcerative lesions around injection sites (% of mice) ([1]; single s.c. 200 mg/kg): 100%
Histopathology, skins around injection sites: Normal (mice/group) [1, 4]: 2/5
Histopathology: hUL degree 1+ Slight (mice/group) [1, 4]: 3/5
Histopathology: hUL degree 2+ Moderate (mice/group) [1, 4]: 0/5
Histopathology: hUL degree 3+ Severe (mice/group) [1, 4]: 0/5
Histopathology: hUL, histopathological skin ulcerative lesions (mice/group) [1, 4]: 3/5
Necropsy, skins around injection sites: Normal (mice/group) [1, 4]: 2/5
Necropsy: gUL degree 1+ Slight (mice/group) [1, 4]: 3/5
Necropsy: gUL degree 2+ Moderate (mice/group) [1, 4]: 0/5
Necropsy: gUL degree 3+ Severe (mice/group) [1, 4]: 0/5
Necropsy: gUL, gross skin ulcerative lesions (mice/group) [1, 4]: 3/5
Clinical signs: Normal appearance (% of mice) [1, 4]: (40%)
Clinical signs: Normal appearance (mice/group) [1, 4]: 2/5
Clinical signs: Skin ulcerative lesions (mice/group) [1, 4]: 3/5
Histopathology, skins around injection sites: Normal (mice/group) [1, 5]: 2/5
Histopathology: hUL degree 1+ Slight (mice/group) [1, 5]: 3/5
Histopathology: hUL degree 2+ Moderate (mice/group) [1, 5]: 0/5
Histopathology: hUL degree 3+ Severe (mice/group) [1, 5]: 0/5
Histopathology: hUL, histopathological skin ulcerative lesions (mice/group) [1, 5]: 3/5
Necropsy, skins around injection sites: Normal (mice/group) [1, 5]: 2/5
Necropsy: gUL degree 1+ Slight (mice/group) [1, 5]: 3/5
Necropsy: gUL degree 2+ Moderate (mice/group) [1, 5]: 0/5
Necropsy: gUL degree 3+ Severe (mice/group) [1, 5]: 0/5
Necropsy: gUL, gross skin ulcerative lesions (mice/group) [1, 5]: 3/5
Clinical signs: Normal appearance (% of mice) [1, 5]: (40%)
Clinical signs: Normal appearance (mice/group) [1, 5]: 2/5
Clinical signs: Skin ulcerative lesions (mice/group) [1, 5]: 3/5
Histopathology, skins around injection sites: Normal (mice/group) [1, 6]: 0/5
Histopathology: hUL degree 1+ Slight (mice/group) [1, 6]: 3/5
Histopathology: hUL degree 2+ Moderate (mice/group) [1, 6]: 1/5
Histopathology: hUL degree 3+ Severe (mice/group) [1, 6]: 1/5
Histopathology: hUL, histopathological skin ulcerative lesions (mice/group) [1, 6]: 5/5
Necropsy, skins around injection sites: Normal (mice/group) [1, 6]: 0/5
Necropsy: gUL degree 1+ Slight (mice/group) [1, 6]: 3/5
Necropsy: gUL degree 2+ Moderate (mice/group) [1, 6]: 1/5
Necropsy: gUL degree 3+ Severe (mice/group) [1, 6]: 1/5
Necropsy: gUL, gross skin ulcerative lesions (mice/group) [1, 6]: 5/5
Clinical signs: Normal appearance (% of mice) [1, 6]: (0%)
Clinical signs: Normal appearance (mice/group) [1, 6]: 0/5
Clinical signs: Skin ulcerative lesions (mice/group) [1, 6]: 5/5
Skin findings around injection sites (conclusion) ([1]; single subcutaneous treatment, compared with negative vehicle control): severe skin ulcerative lesions
Hemolytic percentage (%) ([2]; 2-fold diluted solution, 200 μl in 1 ml rat blood, 37° C., 3 hrs): 148.65±15.01%
Hemolytic percentage (%) ([2]; 4-fold diluted solution, 200 μl in 1 ml rat blood, 37° C., 3 hrs): 129.70±7.23%
Hemolytic percentage (%) ([2]; 8-fold diluted solution, 200 μl in 1 ml rat blood, 37° C., 3 hrs): 117.67±5.97%
Hemolytic percentage (%) ([2]; 16-fold diluted solution, 200 μl in 1 ml rat blood, 37° C., 3 hrs): 78.74±3.30%
Hemolytic percentage (%) ([2]; 32-fold diluted solution, 200 μl in 1 ml rat blood, 37° C., 3 hrs): 26.86±6.40%
Hemolytic percentage (%) ([2]; stock (LPC 10 mg/ml), 200 μl in 1 ml rat blood, 37° C., 3 hrs): 157.68±10.44%
Hemolytic percentage (%) ([2]; throughout all different concentrations including the lowest 32-fold diluted solutions): greater than 5%
Erythrocyte aggregation scores as compared with non-treated or negative saline controls [3]: significant increases
